Experimental data from ChEMBL document CHEMBL1201862, “PubChem BioAssay data set” (2004).
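96-well plates; 48 h exposure; 5 concentrations. Endpoints by linear interpolation between flanking doses. Not reached: highest tested concentration assigned. Abbreviation: GI50, concentration required for 50% inhibition of growth.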 Active and inactive are the calls of the source. Rule as the data show it: active = GI50 up to about 1.1 µM and inactive = higher.

Tests used:
Assay in all cases: inhibition of tumour cell growth, NCI panel, 48 h
[1] = tested on: 786-0
[2] = tested on: A498
[3] = tested on: A549
[4] = tested on: ACHN
[5] = tested on: CAKI-1
[6] = tested on: COLO 205
[7] = tested on: DLD-1
[8] = tested on: DMS-114
[9] = tested on: DMS-273
[10] = tested on: EKVX
[11] = tested on: HCC 2998
[12] = tested on: HCT-116
[13] = tested on: HL-60
[14] = tested on: HOP-18
[15] = tested on: HOP-62
[16] = tested on: HOP-92
[17] = tested on: HT-29
[18] = tested on: IGROV-1
[19] = tested on: K562
[20] = tested on: KM-20L2
[21] = tested on: KM12
[22] = tested on: LOX IMVI
[23] = tested on: LXFL 529
[24] = tested on: M14
[25] = tested on: MOLT-4
[26] = tested on: Malme-3M
[27] = tested on: NCI-H226
[28] = tested on: NCI-H23
[29] = tested on: NCI-H460
[30] = tested on: NCI-H522
[31] = tested on: OVCAR-3
[32] = tested on: OVCAR-4
[33] = tested on: OVCAR-5
[34] = tested on: OVCAR-8
[35] = tested on: RPMI-8226
[36] = tested on: RXF 393
[37] = tested on: SF-268
[38] = tested on: SF-295
[39] = tested on: SF-539
[40] = tested on: SK-MEL-28
[41] = tested on: SK-MEL-5
[42] = tested on: SK-OV-3
[43] = tested on: SN12C
[44] = tested on: SNB-19
[45] = tested on: SNB-75
[46] = tested on: SNB-78
[47] = tested on: SW-620
[48] = tested on: TK-10
[49] = tested on: U-251
[50] = tested on: UACC-257
[51] = tested on: UACC-62
[52] = tested on: UO-31
[53] = tested on: XF498
[54] = tested on: CCRF-CEM
[55] = tested on: HCT-15
[56] = tested on: M19-MEL
[57] = tested on: MCF7
[58] = tested on: NCI/ADR-RES
[59] = tested on: SK-MEL-2

## Cc1cc(C)nc(NS(=O)(=O)c2ccc(NC(=O)c3ccc(Cl)c4c(Nc5ccc(S(=O)(=O)N=C(N)N)cc5)c5ccccc5nc34)cc2)n1
[1]
  GI50: 32.7 µM (inactive)
[2]
  GI50: > 100 µM (inactive)
[3]
  GI50: > 100 µM (inactive)
[4]
  GI50: > 100 µM (inactive)
[5]
  GI50: > 100 µM (inactive)
[6]
  GI50: 61.5 µM (inactive)
[7]
  GI50: 7.67 µM (inactive)
[8]
  GI50: 29.9 µM (inactive)
[9]
  GI50: 33.5 µM (inactive)
[10]
  GI50: > 100 µM (inactive)
[11]
  GI50: 29.1 µM (inactive)
[12]
  GI50: 24 µM (inactive)
[13]
  GI50: 3.72 µM (inactive)
[14]
  GI50: > 100 µM (inactive)
[15]
  GI50: > 100 µM (inactive)
[16]
  GI50: 25.5 µM (inactive)
[17]
  GI50: 16.4 µM (inactive)
[18]
  GI50: 63.8 µM (inactive)
[19]
  GI50: 19 µM (inactive)
[20]
  GI50: 50.2 µM (inactive)
[21]
  GI50: 37.9 µM (inactive)
[22]
  GI50: 17.8 µM (inactive)
[23]
  GI50: 44.3 µM (inactive)
[24]
  GI50: > 100 µM (inactive)
[25]
  GI50: 19.5 µM (inactive)
[26]
  GI50: > 100 µM (inactive)
[27]
  GI50: > 100 µM (inactive)
[28]
  GI50: 3.91 µM (inactive)
[29]
  GI50: > 10 µM (inactive)
[30]
  GI50: 16.1 µM (inactive)
[31]
  GI50: 44.3 µM (inactive)
[32]
  GI50: 59.2 µM (inactive)
[33]
  GI50: > 100 µM (inactive)
[34]
  GI50: 8.65 µM (inactive)
[35]
  GI50: 28.1 µM (inactive)
[36]
  GI50: > 10 µM (inactive)
[37]
  GI50: 35.1 µM (inactive)
[38]
  GI50: > 100 µM (inactive)
[39]
  GI50: 34 µM (inactive)
[40]
  GI50: 58.9 µM (inactive)
[41]
  GI50: > 100 µM (inactive)
[42]
  GI50: > 100 µM (inactive)
[43]
  GI50: 20.8 µM (inactive)
[44]
  GI50: > 100 µM (inactive)
[45]
  GI50: > 100 µM (inactive)
[46]
  GI50: > 100 µM (inactive)
[47]
  GI50: 17.4 µM (inactive)
[48]
  GI50: 33.9 µM (inactive)
[49]
  GI50: 34.8 µM (inactive)
[50]
  GI50: 51.8 µM (inactive)
[51]
  GI50: 36.3 µM (inactive)
[52]
  GI50: > 100 µM (inactive)
[53]
  GI50: > 100 µM (inactive)

## CNC(=O)OCc1c(CO)nc(SC)n1C
[2]
  GI50: > 100 µM (inactive)
[3]
  GI50: > 100 µM (inactive)
[5]
  GI50: > 100 µM (inactive)
[54]
  GI50: > 100 µM (inactive)
[6]
  GI50: > 100 µM (inactive)
[7]
  GI50: > 100 µM (inactive)
[8]
  GI50: > 100 µM (inactive)
[9]
  GI50: > 100 µM (inactive)
[10]
  GI50: > 100 µM (inactive)
[11]
  GI50: > 100 µM (inactive)
[12]
  GI50: > 100 µM (inactive)
[55]
  GI50: > 100 µM
[13]
  GI50: > 100 µM (inactive)
[14]
  GI50: > 100 µM (inactive)
[15]
  GI50: > 100 µM (inactive)
[16]
  GI50: > 100 µM (inactive)
[17]
  GI50: > 100 µM (inactive)
[18]
  GI50: > 100 µM (inactive)
[19]
  GI50: > 100 µM (inactive)
[20]
  GI50: > 100 µM (inactive)
[21]
  GI50: > 100 µM (inactive)
[22]
  GI50: > 100 µM (inactive)
[56]
  GI50: > 100 µM (inactive)
[57]
  GI50: > 100 µM (inactive)
[25]
  GI50: > 100 µM (inactive)
[26]
  GI50: > 100 µM (inactive)
[27]
  GI50: > 100 µM (inactive)
[28]
  GI50: > 100 µM (inactive)
[29]
  GI50: > 100 µM (inactive)
[30]
  GI50: > 100 µM (inactive)
[58]
  GI50: > 100 µM (inactive)
[31]
  GI50: > 100 µM (inactive)
[32]
  GI50: > 100 µM (inactive)
[33]
  GI50: > 100 µM (inactive)
[34]
  GI50: > 100 µM (inactive)
[35]
  GI50: > 100 µM (inactive)
[36]
  GI50: > 100 µM (inactive)
[37]
  GI50: > 100 µM (inactive)
[38]
  GI50: > 100 µM (inactive)
[39]
  GI50: > 100 µM (inactive)
[40]
  GI50: > 100 µM (inactive)
[59]
  GI50: > 100 µM (inactive)
[41]
  GI50: > 100 µM (inactive)
[42]
  GI50: > 100 µM (inactive)
[43]
  GI50: > 100 µM (inactive)
[44]
  GI50: > 100 µM (inactive)
[45]
  GI50: > 100 µM (inactive)
[47]
  GI50: > 100 µM (inactive)
[49]
  GI50: > 100 µM (inactive)
[50]
  GI50: > 100 µM (inactive)
[51]
  GI50: > 100 µM (inactive)
[52]
  GI50: > 100 µM (inactive)
[53]
  GI50: > 100 µM (inactive)

## CC1=N/C(=C\c2ccc(/C=C3/N=C(C)OC3=O)cc2)C(=O)O1
[1]
  GI50: > 100 µM (inactive)
[2]
  GI50: > 100 µM (inactive)
[3]
  GI50: > 100 µM (inactive)
[4]
  GI50: > 100 µM (inactive)
[5]
  GI50: > 100 µM (inactive)
[54]
  GI50: > 100 µM (inactive)
[6]
  GI50: > 100 µM (inactive)
[7]
  GI50: > 100 µM (inactive)
[8]
  GI50: > 100 µM (inactive)
[9]
  GI50: > 100 µM (inactive)
[11]
  GI50: > 100 µM (inactive)
[12]
  GI50: > 100 µM (inactive)
[55]
  GI50: > 100 µM
[14]
  GI50: > 100 µM (inactive)
[15]
  GI50: > 100 µM (inactive)
[16]
  GI50: > 100 µM (inactive)
[17]
  GI50: > 100 µM (inactive)
[18]
  GI50: > 100 µM (inactive)
[19]
  GI50: > 100 µM (inactive)
[20]
  GI50: > 100 µM (inactive)
[21]
  GI50: > 100 µM (inactive)
[22]
  GI50: > 100 µM (inactive)
[23]
  GI50: > 100 µM (inactive)
[24]
  GI50: > 100 µM (inactive)
[56]
  GI50: > 100 µM (inactive)
[25]
  GI50: > 10 µM (inactive)
[26]
  GI50: > 100 µM (inactive)
[28]
  GI50: > 100 µM (inactive)
[30]
  GI50: > 100 µM (inactive)
[31]
  GI50: > 100 µM (inactive)
[32]
  GI50: > 100 µM (inactive)
[33]
  GI50: > 10 µM (inactive)
[34]
  GI50: > 100 µM (inactive)
[35]
  GI50: > 100 µM (inactive)
[36]
  GI50: > 100 µM (inactive)
[37]
  GI50: > 100 µM (inactive)
[39]
  GI50: > 100 µM (inactive)
[40]
  GI50: > 100 µM (inactive)
[59]
  GI50: > 100 µM (inactive)
[41]
  GI50: > 100 µM (inactive)
[42]
  GI50: > 100 µM (inactive)
[43]
  GI50: > 100 µM (inactive)
[44]
  GI50: > 100 µM (inactive)
[45]
  GI50: > 100 µM (inactive)
[46]
  GI50: > 100 µM (inactive)
[47]
  GI50: > 100 µM (inactive)
[48]
  GI50: > 100 µM (inactive)
[49]
  GI50: > 100 µM (inactive)
[50]
  GI50: > 100 µM (inactive)
[51]
  GI50: > 100 µM (inactive)
[52]
  GI50: > 100 µM (inactive)
[53]
  GI50: > 100 µM (inactive)
